Activity calls are given as the source filed them. The rule behind the calls is not given here.
How the values were obtained:
physchem = settings: 1-octanol/aqueous buffer, pH 7.4
Cytochrome P450 3A4 = Cytochrome P450 3A4 (Homo sapiens, UniProt P08684); test: Inhibition of CYP3A4; assay type: ADME
Cytochrome P450 2D6 = Cytochrome P450 2D6 (Homo sapiens, UniProt P10635); test: Inhibition of CYP2D6; assay type: ADME
[1] = target: T1, Alpha-1D adrenergic receptor (Homo sapiens, UniProt P25100); test: Displacement of radiolabeled Prazosin from alpha1D adrenoceptor
T1 sequence (P25100 whole entry): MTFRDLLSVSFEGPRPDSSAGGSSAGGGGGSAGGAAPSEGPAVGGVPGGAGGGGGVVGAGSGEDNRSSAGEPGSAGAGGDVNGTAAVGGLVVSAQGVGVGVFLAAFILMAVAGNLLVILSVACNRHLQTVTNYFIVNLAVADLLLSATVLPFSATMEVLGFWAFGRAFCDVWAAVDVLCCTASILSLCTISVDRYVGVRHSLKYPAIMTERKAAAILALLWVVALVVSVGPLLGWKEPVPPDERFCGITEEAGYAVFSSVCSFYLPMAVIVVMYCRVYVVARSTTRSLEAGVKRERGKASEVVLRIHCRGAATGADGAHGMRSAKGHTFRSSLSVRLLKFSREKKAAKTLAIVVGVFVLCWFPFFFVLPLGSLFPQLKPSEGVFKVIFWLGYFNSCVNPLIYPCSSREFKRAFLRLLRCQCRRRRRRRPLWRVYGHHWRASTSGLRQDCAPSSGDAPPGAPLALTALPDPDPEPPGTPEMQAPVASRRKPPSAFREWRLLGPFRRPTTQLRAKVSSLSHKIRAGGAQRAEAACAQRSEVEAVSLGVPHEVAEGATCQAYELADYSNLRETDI

D(2) dopamine receptor [2] = target: T2, D(2) dopamine receptor (Homo sapiens, UniProt P14416); test: Displacement of radiolabeled spiperone from dopamine D2 receptor
[3] = target: T3, Beta-1 adrenergic receptor (Homo sapiens, UniProt P08588); test: Displacement of radiolabeled iodocyanopindolol from beta1 adrenoceptor
[4] = target: T4, Voltage-gated inwardly rectifying potassium channel KCNH2 (Homo sapiens, UniProt Q12809); test: Inhibition of human ERG
[5] = target: Beta-2 adrenergic receptor (Cavia porcellus, UniProt Q8K4Z4); test: Agonist activity at beta2 adrenoceptor in guinea pig trachea assessed as reduction in methacholine-induced contraction; assay type: functional, tissue-based
[6] = Half life in it dosed dog; assay type: ADME, organism-based, Canis lupus familiaris; settings: in vivo, inhaled or intranasal
D(2) dopamine receptor [7] = target: T2, D(2) dopamine receptor; test: […] to dopamine D2 receptor expressed in HEK cells by GTPgammaS binding assay; assay type: cell-based, HEK293
in vivo = settings: rat, iv
[8] = Clearance in iv dosed rat; settings: in vivo
[9] = Oral bioavailability in rat; assay type: ADME, organism-based; settings: in vivo
Cavia porcellus [10] = test: Bronchoprotective activity in histamine-induced bronchoconstriction guinea pig model at 7 ug/kg, it after 24 hrs; assay type: functional
[11] = Inhibition of cytochrome P450; assay type: ADME
[12] = target: T4, Voltage-gated inwardly rectifying potassium channel KCNH2; test: Inhibition of human ERG by patch clamp assay
[13] = Oral bioavailability in dog; assay type: ADME, organism-based, Canis lupus familiaris; settings: in vivo
[14] = target: T1, Alpha-1D adrenergic receptor; test: […] to Alpha-1D adrenoceptor expressed in HEK cells by calcium flux assay; assay type: cell-based, HEK293
[15] = Apparent volume of distribution during terminal phase in iv dosed rat; assay type: ADME, organism-based; settings: in vivo, read-out: Vz
[16] = target: T3, Beta-1 adrenergic receptor; test: Binding affinity to beta1 adrenoceptor
Cavia porcellus [17] = test: Bronchoprotective activity in it dosed guinea pig assessed as inhibition of histamine-induced constriction
Hepatocyte = settings: rat, hepatocytes
[18] = target: Beta-2 adrenergic receptor (Cavia porcellus) (UniProt Q8K4Z4); test: Agonist activity at beta2 adrenoceptor in guinea pig trachea assessed as reduction in methacholine-induced contraction relative to untreated control; assay type: functional, tissue-based
[19] = target: T5, Beta-2 adrenergic receptor (Homo sapiens, UniProt P07550); test: Displacement of radiolabeled iodocyanopindolol from recombinant beta2 adrenoceptor
[20] = target: T5, Beta-2 adrenergic receptor; test: Agonist activity at human beta2 adrenoceptor expressed in H292 cells assessed as increase in cAMP accumulation after 60 mins by spectrophotometry; assay type: functional, cell-based
[21] = octanol/water, pH 7.4
Cavia porcellus [22] = test: Bronchoprotective activity in histamine-induced bronchoconstriction guinea pig model at 7 ug/kg, it co-administered with beta2 adrenoceptor antagonist propranolol; assay type: functional, organism-based
D(2) dopamine receptor [23] = target: T2, D(2) dopamine receptor; test: […] to dopamine D2 receptor expressed in HEK cells by GTPgammaS binding assay relative to control; assay type: cell-based; settings: HEK293
[24] = target: T6, Alpha-1D adrenergic receptor (Homo sapiens) (UniProt P25100); test: […] to Alpha-1D adrenoceptor expressed in HEK cells by calcium flux assay relative to control; assay type: cell-based; settings: HEK293
T6 sequence (whole entry): T1 sequence (P25100 whole entry)

T3 sequence (P08588 whole entry): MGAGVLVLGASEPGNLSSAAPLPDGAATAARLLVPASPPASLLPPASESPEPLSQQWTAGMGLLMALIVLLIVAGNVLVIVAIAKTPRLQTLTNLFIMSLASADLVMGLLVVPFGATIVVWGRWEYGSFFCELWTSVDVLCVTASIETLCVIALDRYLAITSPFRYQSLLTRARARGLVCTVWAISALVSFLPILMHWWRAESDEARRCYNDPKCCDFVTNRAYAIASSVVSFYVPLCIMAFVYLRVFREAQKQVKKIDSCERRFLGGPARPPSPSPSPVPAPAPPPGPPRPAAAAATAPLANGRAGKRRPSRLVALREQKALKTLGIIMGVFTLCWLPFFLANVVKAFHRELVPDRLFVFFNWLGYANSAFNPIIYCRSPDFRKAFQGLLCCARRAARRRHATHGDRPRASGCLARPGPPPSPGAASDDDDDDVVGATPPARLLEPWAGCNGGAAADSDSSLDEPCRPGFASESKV
T5 sequence (P07550 whole entry): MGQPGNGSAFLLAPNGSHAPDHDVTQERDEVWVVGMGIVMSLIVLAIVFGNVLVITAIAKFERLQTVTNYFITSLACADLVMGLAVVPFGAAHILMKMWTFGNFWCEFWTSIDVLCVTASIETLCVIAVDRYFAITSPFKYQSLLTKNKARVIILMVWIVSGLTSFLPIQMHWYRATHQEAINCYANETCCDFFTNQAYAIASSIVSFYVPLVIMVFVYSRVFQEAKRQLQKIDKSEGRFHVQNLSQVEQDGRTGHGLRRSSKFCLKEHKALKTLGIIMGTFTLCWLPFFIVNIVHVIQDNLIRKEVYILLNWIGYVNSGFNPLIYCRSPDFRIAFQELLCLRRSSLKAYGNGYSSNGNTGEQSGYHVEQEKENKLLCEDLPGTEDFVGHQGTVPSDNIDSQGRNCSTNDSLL
T2 sequence (P14416 whole entry): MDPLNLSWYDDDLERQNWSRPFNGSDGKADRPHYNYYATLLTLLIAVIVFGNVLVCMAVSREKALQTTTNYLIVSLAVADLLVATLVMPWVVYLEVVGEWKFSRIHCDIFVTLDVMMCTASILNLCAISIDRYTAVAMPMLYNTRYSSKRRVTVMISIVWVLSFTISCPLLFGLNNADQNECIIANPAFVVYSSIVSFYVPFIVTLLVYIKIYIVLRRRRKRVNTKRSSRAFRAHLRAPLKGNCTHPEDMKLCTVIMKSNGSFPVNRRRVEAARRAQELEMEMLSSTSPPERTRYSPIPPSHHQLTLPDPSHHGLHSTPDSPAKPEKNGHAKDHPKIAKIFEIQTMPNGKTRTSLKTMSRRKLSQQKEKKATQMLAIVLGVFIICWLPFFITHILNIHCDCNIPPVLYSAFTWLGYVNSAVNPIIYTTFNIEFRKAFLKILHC
Chain of Beta-2 adrenergic receptor (Cavia porcellus, UniProt Q8K4Z4) (Q8K4Z4 whole entry): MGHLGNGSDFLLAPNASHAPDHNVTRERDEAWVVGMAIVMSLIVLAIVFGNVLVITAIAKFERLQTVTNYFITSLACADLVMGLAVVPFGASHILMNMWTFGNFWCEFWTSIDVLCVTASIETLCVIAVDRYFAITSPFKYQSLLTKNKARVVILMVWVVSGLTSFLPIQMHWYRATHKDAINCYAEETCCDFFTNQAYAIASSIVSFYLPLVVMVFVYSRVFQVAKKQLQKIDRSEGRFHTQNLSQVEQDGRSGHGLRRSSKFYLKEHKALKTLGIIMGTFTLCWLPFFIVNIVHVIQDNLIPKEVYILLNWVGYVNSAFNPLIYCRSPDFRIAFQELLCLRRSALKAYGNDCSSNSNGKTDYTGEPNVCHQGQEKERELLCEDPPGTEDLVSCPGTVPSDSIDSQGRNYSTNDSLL
Chain of Beta-2 adrenergic receptor (Cavia porcellus) (Q8K4Z4 whole entry, looked up): as the sequence (Q8K4Z4 whole entry) above
T4 sequence (Q12809 whole entry): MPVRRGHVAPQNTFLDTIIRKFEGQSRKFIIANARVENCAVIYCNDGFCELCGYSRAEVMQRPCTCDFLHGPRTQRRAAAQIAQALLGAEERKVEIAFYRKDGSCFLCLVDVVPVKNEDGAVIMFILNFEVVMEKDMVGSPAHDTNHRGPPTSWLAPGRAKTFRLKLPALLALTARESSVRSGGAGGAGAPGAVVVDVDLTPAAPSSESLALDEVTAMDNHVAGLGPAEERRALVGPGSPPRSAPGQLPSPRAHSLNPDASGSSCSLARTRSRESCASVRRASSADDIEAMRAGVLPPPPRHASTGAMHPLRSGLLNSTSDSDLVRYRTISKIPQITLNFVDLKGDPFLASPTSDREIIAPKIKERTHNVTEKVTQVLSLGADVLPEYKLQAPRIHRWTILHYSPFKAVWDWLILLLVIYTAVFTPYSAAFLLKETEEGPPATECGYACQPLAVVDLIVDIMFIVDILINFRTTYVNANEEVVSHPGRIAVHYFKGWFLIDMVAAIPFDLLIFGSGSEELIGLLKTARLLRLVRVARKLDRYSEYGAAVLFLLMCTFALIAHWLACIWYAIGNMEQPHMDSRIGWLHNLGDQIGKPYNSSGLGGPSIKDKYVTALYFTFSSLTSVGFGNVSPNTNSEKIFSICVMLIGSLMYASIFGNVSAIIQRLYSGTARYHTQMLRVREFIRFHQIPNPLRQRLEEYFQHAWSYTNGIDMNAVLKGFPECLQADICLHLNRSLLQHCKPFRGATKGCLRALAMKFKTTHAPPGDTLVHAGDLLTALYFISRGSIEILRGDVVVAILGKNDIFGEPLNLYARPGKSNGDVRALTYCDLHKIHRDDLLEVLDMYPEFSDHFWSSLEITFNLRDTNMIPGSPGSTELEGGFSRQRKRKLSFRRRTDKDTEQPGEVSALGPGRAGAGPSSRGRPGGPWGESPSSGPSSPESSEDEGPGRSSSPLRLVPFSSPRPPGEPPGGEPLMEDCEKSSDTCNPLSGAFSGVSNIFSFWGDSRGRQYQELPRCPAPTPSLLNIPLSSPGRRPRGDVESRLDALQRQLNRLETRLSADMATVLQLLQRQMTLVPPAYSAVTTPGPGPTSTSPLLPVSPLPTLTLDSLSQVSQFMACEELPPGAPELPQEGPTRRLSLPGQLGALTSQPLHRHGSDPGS
Chain of Cytochrome P450 3A4 (P08684 whole entry): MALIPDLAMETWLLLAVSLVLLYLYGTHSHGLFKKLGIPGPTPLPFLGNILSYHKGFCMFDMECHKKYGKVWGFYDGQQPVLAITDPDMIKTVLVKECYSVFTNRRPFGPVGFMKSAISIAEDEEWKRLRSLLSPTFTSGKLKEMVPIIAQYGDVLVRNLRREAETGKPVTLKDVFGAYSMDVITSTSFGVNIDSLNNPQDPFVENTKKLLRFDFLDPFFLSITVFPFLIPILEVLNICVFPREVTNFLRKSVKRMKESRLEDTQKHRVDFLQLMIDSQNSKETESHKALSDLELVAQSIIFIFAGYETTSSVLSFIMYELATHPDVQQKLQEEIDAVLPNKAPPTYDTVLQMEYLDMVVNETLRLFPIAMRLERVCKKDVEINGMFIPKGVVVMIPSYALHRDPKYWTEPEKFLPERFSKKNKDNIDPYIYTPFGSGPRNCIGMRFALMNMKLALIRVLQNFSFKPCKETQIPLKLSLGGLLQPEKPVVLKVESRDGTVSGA
Chain of Cytochrome P450 2D6 (P10635 whole entry): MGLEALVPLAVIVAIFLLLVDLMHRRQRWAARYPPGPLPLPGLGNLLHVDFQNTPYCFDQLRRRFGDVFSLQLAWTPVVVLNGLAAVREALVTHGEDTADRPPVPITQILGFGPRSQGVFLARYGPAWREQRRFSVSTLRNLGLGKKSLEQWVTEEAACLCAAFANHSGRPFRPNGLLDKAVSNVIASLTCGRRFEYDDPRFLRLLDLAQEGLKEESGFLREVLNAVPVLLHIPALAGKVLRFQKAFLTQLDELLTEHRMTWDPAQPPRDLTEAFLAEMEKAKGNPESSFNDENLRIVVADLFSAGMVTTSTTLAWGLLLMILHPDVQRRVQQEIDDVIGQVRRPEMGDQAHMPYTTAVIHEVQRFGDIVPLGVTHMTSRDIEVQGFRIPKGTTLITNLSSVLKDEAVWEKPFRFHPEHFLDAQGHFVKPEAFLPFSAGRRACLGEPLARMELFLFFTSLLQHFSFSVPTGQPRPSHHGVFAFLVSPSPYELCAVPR

Structure (SMILES) | logD (physchem) | IC50 [1] [nM] | IC50 (D(2) dopamine receptor [2]) [nM] | IC50 [3] [nM] | EC50 [5] [nM] | half-life (in vivo) [h] | clearance [8] [mL/min/kg] | Vd [15] [L/kg] | Intrinsic activity [18] | IC50 [19] [nM] | EC50 [20] [nM] | also measured
O=c1[nH]c2c(O)ccc([C@@H](O)CNCCc3cccc(CNCCc4c(Cl)cccc4Cl)c3)c2s1 | 3.2 | 63.1 | 251 | 12.6 | – | – | – | – | – | – | – | inhibition (INH) (Cytochrome P450 3A4): Active; inhibition (INH) (Cytochrome P450 2D6): Active; inhibition (INH) [4]: Active
COc1ccccc1CNCc1cccc(CCNC[C@H](O)c2ccc(O)c3[nH]c(=O)sc23)c1 [listing 1 of 2 here] | 1.1 | 200 | 1000 | 50.1 | 0.501 | 14 | 20 | 22 | – | – | – | half-life [6]: 48 h; EC50 (D(2) dopamine receptor [7]): 251 nM; bioavailability [9]: < 2%; Activity (Cavia porcellus [10]): 64%; Activity [11]: > 10 µM; Activity [12]: > 10 µM; bioavailability [13]: < 2%; EC50 [14]: 126 nM
CCc1cc2c(cc1CC)CC(NC[C@H](O)c1ccc(O)c3[nH]c(=O)ccc13)C2 [INDACATEROL] | – | – | – | – | – | 7.6 | – | – | – | – | – | IC50 [16]: […]; ED80 (Cavia porcellus [17]): 14 µg/kg; Drug metabolism (Hepatocyte): 51%
O=c1[nH]c2c(O)ccc([C@@H](O)CNCCc3cccc(CNCCc4ccccc4F)c3)c2s1 | 1.1 | 126 | 398 | 63.1 | 0.251 | 16 | 6 | 8.2 | 0.9 | 0.501 | 0.158 | –
O=c1[nH]c2c(O)ccc([C@@H](O)CNCCc3cccc(CNCCc4ccccn4)c3)c2s1 | – | 200 | 1580 | 158 | 0.316 | – | – | 41 | 0.9 | 2.51 | 0.501 | –
O=c1[nH]c2c(O)ccc([C@@H](O)CNCCc3ccc(CNCCc4c(Cl)cccc4Cl)cc3)c2s1 | 2.3 | 79.4 | 1000 | 398 | – | – | – | – | – | 3.98 | 0.316 | inhibition (INH) (Cytochrome P450 3A4): Active; inhibition (INH) (Cytochrome P450 2D6): Active; inhibition (INH) [4]: Active
OCc1cc(C(O)CNCCCCCCOCCCCc2ccccc2)ccc1O (stereo unspecified) [SALMETEROL] | – | – | – | – | – | – | – | – | – | – | – | ED80 (Cavia porcellus [17]): 1 µg/kg; Drug metabolism (Hepatocyte): 85%
O=c1[nH]c2c(O)ccc([C@@H](O)CNCCc3cccc(CN4CCCC4)c3)c2s1 | – | 1000 | 3160 | 316 | – | – | – | – | – | 3.98 | 0.631 | logD [21]: 0.8
COc1ccccc1CNCc1cccc(CCNC[C@H](O)c2ccc(O)c3[nH]c(=O)sc23)c1 [listing 2 of 2 here] | – | – | – | – | – | – | – | – | 0.9 | – | – | Activity (Cavia porcellus [22]): inactive; Intrinsic activity (D(2) dopamine receptor [23]): 0.4; Intrinsic activity [24]: 0.3
COc1ccccc1CNCc1cccc(CCNC[C@H](O)c2ccc(O)c3[nH]c(=O)sc23)c1.Cl | – | – | – | – | – | – | – | – | – | – | – | ED80 (Cavia porcellus [17]): 7 µg/kg
O=c1[nH]c2c(O)ccc(CCNCCc3cccc(-c4cccc(CNCc5ccccc5)c4)c3)c2s1 | 0.8 | – | – | – | 0.501 | 14 | 23 | 29 | 0.9 | 31.6 | – | –
COCCNCc1cccc(CCNC[C@H](O)c2ccc(O)c3[nH]c(=O)sc23)c1 | 0 | 501 | 794 | 158 | 3.16 | 18 | 18 | 28 | 0.8 | 25.1 | – | –
C[C@@H](NCc1ccccc1-c1ccc(CCNCCc2ccc(O)c3[nH]c(=O)sc23)cc1)c1ccccc1 | -0.3 | – | – | – | 0.251 | 15 | 19 | 22 | 0.9 | 0.794 | – | –
O=c1[nH]c2c(O)ccc(CCNCCS(=O)(=O)CCCOCCc3ccccc3)c2s1 [SIBENADET] | – | – | – | – | – | – | – | – | – | – | – | IC50 [16]: > 10000 nM; Drug metabolism (Hepatocyte): > 117%
Cc1cccc2c(CCNCc3ccc(CCNC[C@H](O)c4ccc(O)c5[nH]c(=O)sc45)cc3)c[nH]c12 | – | 100 | > 794 | 316 | 0.2 | 18 | 18 | 29 | 0.8 | 2 | 0.251 | –
COc1ccccc1CN(C)Cc1cccc(CCNC[C@H](O)c2ccc(O)c3[nH]c(=O)sc23)c1 | 1.5 | 251 | 1000 | 200 | – | – | – | – | – | 25.1 | 3.16 | –
O=c1[nH]c2c(O)ccc([C@@H](O)CNCCc3cccc(CNCc4ccccc4F)c3)c2s1 | 0.7 | 79.4 | 631 | 6.31 | – | – | – | – | – | 1 | 0.631 | –

— ChEMBL document CHEMBL1944599, “From libraries to candidate: the discovery of new ultra long-acting dibasic β₂-adrenoceptor agonists” (Bioorg Med Chem Lett, 2012)
